Source: patent publication US20090325960A1, “METHOD FOR TREATING INFLAMMATORY DISEASES USING RHO KINASE INHIBITOR COMPOUNDS” (priority 2008, published 2009)
Where two headings read alike, the source gives them in different places.

Experiments:
[1] = system: A-10 rat thoracic aorta cells; assay: PDGF-stimulated smooth muscle cell proliferation assay (BrdU incorporation); assay type: cell-based
Protocol: Effects on cell proliferation were measured using a bromodeoxyuridine (BrdU) incorporation assay. […] Serum free media containing 0.1% BSA was added to the cells. 24 hours later the media was removed and replaced with warmed serum free media. […] Proliferation was then monitored using the BrdU Cell Proiferation Assay, HTS (Calbiochem cat. # HTS01). BrdU was allowed to incorporate into cells for 24 hours prior to the addition of fixative/denaturing solution and the fluorometric detection of incorporated BrdU using a BrdU antibody as per manufacturer's directions. Data are reported as a percent of the PDGF-stimulated BrdU incorporation.

[2] = Rat oral pharmacokinetics (plasma); assay type: in vivo; conditions: rat oral PK, mean of n = 3 rats; for AUC (0-last): time zero through last observable value
Protocol: Plasma (EDTA K2 anticoagulant) was collected from male, cannulated, CD Sprague Dawley rats to determine the pharmacokinetics of formulations containing compound inhibitors of Rho kinase. Each animal was dosed orally with a 4 ml/kg solution or suspension of each test compound in 10 mM acetate buffered saline, pH 4.5 at a final concentration range of 20-30 mol/kg. Blood was collected at 0.25, 0.5, 1, 2, 4, 6, 8, and 24 hours. Plasma samples were assayed for the concentration of the test compound using an on-line, solid phase extraction LC/MS/MS analysis system.
Pharmacokinetic analyses were performed using WinNonlin software version 5.2 (Pharsight Corporation, Mountain View, Calif.).
As determined from the plasma concentration versus time curves, the time to peak and peak exposure are represented by the values Tmax and Cmax, respectively. The AUC values (nM*hr) shown were calculated as the areas under the plasma concentration versus time curves from time zero through the time of the last observable value and represent the total exposure of the compound over the course of the study. Half-life values or the amount of time required for the plasma levels of the compound to decline to half the initial value are represented as t1/2.

[3] = system: cytokine secretion from LPS-stimulated human monocytes; assay: Human monocyte cytokine secretion assay (LPS-stimulated); assay type: cell-based
Protocol: Peripheral blood from healthy human volunteers was collected and the monocytes isolated via Ficoll-paque density centrifugation. […] The cells were allowed to pre-incubate with test compound at the indicated concentration for 30 minutes (37° C., 5% CO2, humidified air); after which the supernatant was removed and media containing compound and 1 ng/mL LPS was added. Cells were allowed to incubate with compounds and LPS for 4 hours at 37° C. after which the supernatant was removed and stored at −80° C. Cytokine concentrations in the supernatant were determined using commercially available Bio-Rad Bio-Plex™ kits according the manufacturer's instructions.

Mnk2 = molecular target: T1, Mnk2 (Homo sapiens, UniProt Q9HBH9); assay type: biochemical
T1 construct: purchased Upstate, Millipore Bioscience Division (KinaseProfiler service)
T1 sequence (Q9HBH9 whole entry): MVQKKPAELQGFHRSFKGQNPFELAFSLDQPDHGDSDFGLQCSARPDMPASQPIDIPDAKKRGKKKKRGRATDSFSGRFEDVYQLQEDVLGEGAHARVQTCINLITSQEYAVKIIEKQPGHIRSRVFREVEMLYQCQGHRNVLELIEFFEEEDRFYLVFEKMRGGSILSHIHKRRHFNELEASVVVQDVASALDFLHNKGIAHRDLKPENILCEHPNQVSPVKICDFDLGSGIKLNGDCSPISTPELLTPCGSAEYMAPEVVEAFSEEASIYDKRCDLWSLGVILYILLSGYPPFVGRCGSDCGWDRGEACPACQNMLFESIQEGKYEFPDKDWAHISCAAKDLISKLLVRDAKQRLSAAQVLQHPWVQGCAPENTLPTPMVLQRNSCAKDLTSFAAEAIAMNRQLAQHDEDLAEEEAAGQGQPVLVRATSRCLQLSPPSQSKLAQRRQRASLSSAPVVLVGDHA
Protocol: (§1) Compounds of Formulae I and II were examined for activity against a selected panel of kinases using the KinaseProfiler™ enzyme profiling services (Upstate, Millipore Bioscience Division). Percent kinase activity at 10 μM and 1 μM test compound and 10 μM ATP was determined against 40 wild-type recombinant human kinases according to Upstate's standard protocol: ASK1, BTK, CSK, c-RAF, GCK, GSK3β, IKKα, IKKβ, IRAK1, IRAK4, JNK1α1, JNK2α2, JNK3, ERK1, ERK2, MAPKAP-K2, MAPKAP-K3, MEK1, MKK4, MKK6, MKK7β, Mnk2, MSK1, PAK3, PDK1, PRAK, ROCK1, Rsk2, SAPK2a, SAPK2b, SAPK3, SAPK4, SRPK1, SRPK2, Syk, TAK1, TBK1, PI3-Kβ, PI3-Kγ, PI3-Kδ.

ERK1 = molecular target: T2, ERK1 (Homo sapiens, UniProt P27361); assay: Kinase panel screen (KinaseProfiler), ERK1; assay type: biochemical; conditions: 1 μM test compound, 10 μM ATP
T2 construct: purchased Upstate, Millipore Bioscience Division (KinaseProfiler service)
T2 sequence (P27361 whole entry): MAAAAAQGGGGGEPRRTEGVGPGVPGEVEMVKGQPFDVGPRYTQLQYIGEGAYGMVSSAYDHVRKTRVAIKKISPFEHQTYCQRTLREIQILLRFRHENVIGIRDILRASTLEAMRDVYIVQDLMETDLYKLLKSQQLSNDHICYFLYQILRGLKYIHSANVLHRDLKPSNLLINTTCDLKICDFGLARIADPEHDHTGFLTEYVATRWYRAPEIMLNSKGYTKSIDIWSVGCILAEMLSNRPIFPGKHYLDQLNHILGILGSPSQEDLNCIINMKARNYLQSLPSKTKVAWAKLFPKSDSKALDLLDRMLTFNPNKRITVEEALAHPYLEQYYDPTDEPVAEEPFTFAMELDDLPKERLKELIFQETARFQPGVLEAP
Protocol: as §1

ERK2 = molecular target: T3, ERK2 (Homo sapiens, UniProt P28482); assay: Kinase panel screen (KinaseProfiler), ERK2; assay type: biochemical; conditions: 1 μM test compound, 10 μM ATP; read-out: Percent inhibition ERK2 at 1 μM
T3 construct: purchased Upstate, Millipore Bioscience Division (KinaseProfiler service)
T3 sequence (P28482 whole entry): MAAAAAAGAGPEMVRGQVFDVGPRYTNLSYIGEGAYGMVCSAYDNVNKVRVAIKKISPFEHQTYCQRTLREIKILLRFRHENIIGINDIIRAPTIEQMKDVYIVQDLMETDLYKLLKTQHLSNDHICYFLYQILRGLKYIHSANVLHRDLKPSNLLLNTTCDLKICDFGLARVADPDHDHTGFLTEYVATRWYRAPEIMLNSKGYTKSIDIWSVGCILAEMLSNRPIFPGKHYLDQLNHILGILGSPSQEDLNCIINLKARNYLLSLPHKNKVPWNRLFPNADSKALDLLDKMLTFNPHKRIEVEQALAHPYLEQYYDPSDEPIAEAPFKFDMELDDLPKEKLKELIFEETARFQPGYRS
Protocol: as §1

[4] = system: ova-sensitized, ova-challenged BALB/c mice; assay: Prevention of airway hyperreactivity (Penh, methacholine) in mouse ovalbumin sensitization model; assay type: in vivo; conditions: days 27 to 31; for airway hyperreactivity: intratracheal once a day
Protocol: The anti-inflammatory dosing paradigm consists of dosing the animals once a day starting on day 27 and finishing on either day 30 or 31 (1 hr prior to the aerosolized ovalbumin challenges on days 28 to 30) but not on day 32 when hyperreactivity evaluation occurs. […] Exposure to the methacholine doses consisted of a 3 minute period during which a nebulizer was aerosolizing the methacholine and an additional 3 minute period following the cessation of nebulization. […] Enhanced pause (Penh), a unitless index of airway hyperreactivity, is derived from the expiratory side of the respiratory waveform measured via the plethysmograph and is used as an indirect measure of airway resistance and hyperreactivity. […] Following the methacholine dose response, BALF was collected and all animals were anesthetized, bled and euthanized. […] The Penh value at each of the dose levels of methacholine represents the 6-minute average response. Change from baseline (CFB) in Penh was calculated at each methacholine dose and the area under the curve (AUC) for these CFB values was calculated using the trapezoidal rule. This same approach was applied for each mouse across multiple experiments. […] Data from equal experimental conditions across experiments performed on different days were pooled for statistical analysis and data reporting. […] A random intercept for each experiment was assumed to account for possible similarities of the results obtained from a given experiment (i.e., as a “blocking effect”). […] For FIG. 11, linear AUC values from compound treated mice were reported as a percent of linear AUC values from vehicle-treated ovalbumin-sensitized/ovalbumin-challenged (asthmatic) mice.

[5] = system: monocytes, endothelial cells, and lymphocytes; conditions: cited from earlier work
[6] = system: ova-sensitized, ova-challenged BALB/c mice; assay: In vivo anti-inflammatory activity, mouse ovalbumin sensitization model (BALF cells and cytokines); conditions: dosed orally to day 31, anti-inflammatory dosing paradigm
Protocol: Upon arrival, the animals were randomized into groups of five males per cage and assigned to a dosing group. Animals were quarantined for 7 days under test conditions. […] Animals were sensitized on day 0 and 14 of study by an intraperitoneal injection with 20 μg of ovalbumin (ova) and 2.0 mg aluminum hydroxide (alum) which initiates the development of a specific T-helper (Th) cells type 2 resulting in asthmatic animals (denoted as Ova in the fugures). One group of animals received an injection of saline to use as control animals (denoted as normal in the figures). […] Aerosol challenge consists of using an Aerogen Aeroneb nebulizer and controller with a particle size of 4-6 μm mass median aerodynamic diameter (MMAD) with a distribution of 400 μl per minute. This aerosol challenge is necessary to target the Th2-driven allergic inflammation in the lower airways.
The anti-inflammatory dosing paradigm (FIG. 5) was utilized to evaluate the anti-inflammatory effects of experimental compounds. […] On day 32 of the experiment, after measurement of airway hyperreactivity, BALF was collected and all animals were anesthetized, bled and euthanized.
Bronchoalveolar lavage fluid (BALF) was collected by infusing 3.0 ml of saline with 10% fetal calf serum into the lungs via the trachea and then withdrawing the fluid. The total amount of cells/ml of BALF fluid was determined via manual cell count on hemocytometer. The BALF was centrifuged, supernatant removed and analyzed for cytokine concentrations as described below, and cell pellet reconstituted in 500 μL of fluid. Cytospin slides were prepared from the cell pellet using 100 μL of fluid and spinning samples for 5 minutes at 5000 rpms in a cytospin centrifuge, Following Hema3 stain, relative percentages of individual leukocytes were determined on a 200 cell count for each sample. The final concentration of individual leukocyte cell types per ml of BALF was determined by multiplication of the relative percentage of individual leukocytes with the total amount of cells/ml of BALF fluid.
The concentrations of cytokines in the BALF samples were determined using commercially available Bio-plex kits (Bio-Rad) for the detection of mouse IL-5, IL-13, and Eotaxin. The analysis of cytokine levels was measured using the Bio-Plex 200 (Bio-Rad) system according to the manufacturer's instructions.

[7] = 10 μM of test compound, 1 ng/mL LPS, 4 hours, read-out: IL-1β % (Percent inhibition values for inhibition of cytokine secretion)
[8] = 10 μM of test compound, 1 ng/mL LPS, 4 hours, read-out: TNF-α % (Percent inhibition values for inhibition of cytokine secretion)
[9] = read-out: IL-6 % (Percent inhibition values for inhibition of cytokine secretion), 10 μM of test compound, 1 ng/mL LPS, 4 hours

SMILES | activity at 10 µM [3, 7] [%] | activity at 10 µM [3, 8] [%] | activity at 10 µM [3, 9] [%] | other results
CSc1ccc(CN2CC[C@@H](Nc3cccc4cnccc34)C2)cc1 [Compound 2.026, (R)-N-(1-(4-(methylthio)benzyl)pyrrolidin-3-yl)isoquinolin-5-amine] |  |  |  | Percent of PDGF Induced Proliferation at 10 μM Avg ([1]; 10 μM, 10 ng/mL PDGF): 52.0%; Proliferation at 10 μM ([1]; average percent of PDGF stimulated proliferation at 10 μM test compound): 52.0%; Cmax [2]: BLQ; Tmax [2]: BLQ; Vz_F [2]: BLQ; t½ [2]: BLQ; AUC (0-last) [2]: BLQ
c1cc2cc(CN3CCC[C@@H](Nc4ccc5[nH]ncc5c4)C3)ccc2[nH]1 [Compound 1.143, (R)-N-(1-((1H-indol-5-yl)methyl)piperidin-3-yl)-1H-indazol-5-amine] | 76.8 |  |  | 
COc1ccc(CN2CCC[C@@H](Nc3ccc4[nH]ncc4c3)C2)cc1 [Compound 1.226, (R)-N-(1-(4-methoxybenzyl)piperidin-3-yl)-1H-indazol-5-amine] | 99.3 | 66.6 |  | 
Cc1ccc(CN2CCC[C@H](Nc3ccc4[nH]ncc4c3)C2)cc1 [Compound 1.078, (S)-N-(1-(4-methylbenzyl)piperidin-3-yl)-1H-indazol-5-amine] | 60.4 | 88.1 | 111 | 
NC(=O)Cn1ccc2cc(CN3CCC[C@@H](Nc4ccc5[nH]ncc5c4)C3)ccc21 [Compound 1.162, (R)-2-(5-((3-(1H-indazol-5-ylamino)piperidin-1-yl)methyl)-1H-indol-1-yl)acetamide] |  |  |  | Percent inhibition Mnk2 at 1 μM (Mnk2): 111
CCc1ccc(CN2CCC[C@@H](Nc3ccc4[nH]ncc4c3)C2)cc1 [Compound 1.136, (R)-N-(1-(4-ethylbenzyl)piperidin-3-yl)-1H-indazol-5-amine] |  |  |  | Cmax [2]: BLQ; Tmax [2]: BLQ; Vz_F [2]: BLQ; t½ [2]: BLQ; AUC (0-last) [2]: BLQ
OCCn1ccc2cc(CN3CC[C@@H](Nc4cccc5cnccc45)C3)ccc21 [Compound 2.066, (R)-2-(5-((3-(isoquinolin-5-ylamino)pyrrolidin-1-yl)methyl)-1H-indol-1-yl)ethanol] |  |  |  | Percent inhibition at 1 µM (ERK1): ~50%; Percent inhibition Mnk2 at 1 μM (Mnk2): 99; activity at 1 µM (ERK2): ~50%; airway hyperreactivity [4]: prevention of airway hyperreactivity
c1cc2c(cc1CN1CCC[C@@H](Nc3ccc4[nH]ncc4c3)C1)CCO2 [Compound 1.246, (R)-N-(1-((2,3-dihydrobenzofuran-5-yl)methyl)piperidin-3-yl)-1H-indazol-5-amine] | 103 | 79 | 108 | 
CSc1ccc(CN2CCC[C@@H](Nc3ccc4[nH]ncc4c3)C2)cc1 [Compound 1.074, (R)-N-(1-(4-(methylthio)benzyl)piperidin-3-yl)-1H-indazol-5-amine] |  |  | 96 | 
Oc1cccc(CN2CCC[C@@H](Nc3ccc4[nH]ncc4c3)C2)c1 [Compound 1.145, (R)-3-((3-(1H-indazol-5-ylamino)piperidin-1-yl)methyl)phenol] | 129 |  |  | 
C[C@@H](N)[C@H]1CC[C@H](C(=O)Nc2ccncc2)CC1 [Compound Y-27632] |  |  |  | expression of IL-1β, TNFα, and various other cytokines [5]: suppress expression
Clc1cccc(CN2CCC[C@H](Nc3ccc4[nH]ncc4c3)C2)c1 [Compound 1.170, (S)-N-(1-(3-chlorobenzyl)piperidin-3-yl)-1H-indazol-5-amine] | 80.6 | 67.8 | 72.7 | 
c1ccc(CN2CCC[C@@H](Nc3ccc4[nH]ncc4c3)C2)cc1 [Compound 1.110, (R)-N-(1-benzylpiperidin-3-yl)-1H-indazol-5-amine] | 134 | 119 | 112 | 
Brc1ccc(CN2CCC[C@H](Nc3ccc4[nH]ncc4c3)C2)cc1 [Compound 1.142, (S)-N-(1-(4-bromobenzyl)piperidin-3-yl)-1H-indazol-5-amine] | 82.8 |  |  | 
c1ccc(CN2CCC[C@H](Nc3ccc4[nH]ncc4c3)C2)cc1 [Compound 1.227, (S)-N-(1-benzylpiperidin-3-yl)-1H-indazol-5-amine] | 69.4 | 79.3 | 66.7 | 
Cc1ccc(CN2CCC[C@@H](Nc3ccc4[nH]ncc4c3)C2)cc1OCCO [Compound 1.161, (R)-2-(5-((3-(1H-indazol-5-ylamino)piperidin-1-yl)methyl)-2-methylphenoxy)ethanol] |  |  |  | Proliferation at 1 μM ([1]; average percent of PDGF stimulated proliferation at 1 μM test compound): 50.0%; Percent inhibition Mnk2 at 1 μM (Mnk2): 108; airway hyperreactivity [4]: prevention of airway hyperreactivity
c1cc2cc(CN3CCC[C@@H](Nc4ccc5[nH]ncc5c4)C3)ccc2o1 [Compound 1.131, (R)-N-(1-(benzofuran-5-ylmethyl)piperidin-3-yl)-1H-indazol-5-amine] |  |  |  | airway eosinophil infiltration (eosinophils per ml of BALF) [6]: reduced; Vz_F [2]: 6.8 L/kg; airway hyperreactivity to metacholine on Day 32 ([4]; oral 15 μMol/kg once a day): prevention of airway hyperreactivity
O=C(COc1cccc(CN2CCC[C@@H](Nc3ccc4[nH]ncc4c3)C2)c1)N1CCOCC1 [Compound 1.127, (R)-2-(3-((3-(1H-indazol-5-ylamino)piperidin-1-yl)methyl)phenoxy)-l-morpholinoethanone] | 198 | 97.3 | 67.3 | 
Cc1ccc(CN2CCC[C@H](Nc3ccc4[nH]ncc4c3)C2)cc1O [Compound 1.151, (S)-5-((3-(1H-indazol-5-ylamino)piperidin-1-yl)methyl)-2-methylphenol] |  |  | 114 | 
Fc1ccc(CN2CCC[C@H](Nc3ccc4[nH]ncc4c3)C2)cc1F [Compound 1.072, (S)-N-(1-(3,4-difluorobenzyl)piperidin-3-yl)-1H-indazol-5-amine] | 98.2 | 83.8 | 96.1 | 
C=Cc1ccc(CN2CCC[C@@H](Nc3ccc4[nH]ncc4c3)C2)cc1 [Compound 1.208, (R)-N-(1-(4-vinylbenzyl)piperidin-3-yl)-1H-indazol-5-amine] | 62 | 92 | 109 | 
NC(=O)Cn1ccc2ccc(CN3CC[C@@H](Nc4cccc5cnccc45)C3)cc21 [Compound 2.058, (R)-2-(6-((3-(isoquinolin-5-ylamino)pyrrolidin-1-yl)methyl)-1H-indol-1-yl)acetamide] |  |  | 1.3 | 
OCCOc1cccc(CN2CCC[C@@H](Nc3ccc4[nH]ncc4c3)C2)c1 [Compound 1.092, (R)-2-(3-((3-(1H-indazol-5-ylamino)piperidin-1-yl)methyl)phenoxy)ethanol] |  |  |  | Vz_F [2]: 19.0 L/kg
Fc1ccc(CN2CCC[C@@H](Nc3ccc4[nH]ncc4c3)C2)cc1 [Compound 1.146, (R)-N-(1-(4-fluorobenzyl)piperidin-3-yl)-1H-indazol-5-amine] |  | 97.7 | 128 | 
C=Cc1ccc(CN2CCC[C@H](Nc3ccc4[nH]ncc4c3)C2)cc1 [Compound 1.229, (S)-N-(1-(4-vinylbenzyl)piperidin-3-yl)-1H-indazol-5-amine] | 44.9 | 50.7 | 63.2 | 
